Source: EP4088722A1, “PHARMACEUTICAL COMPOSITIONS, USES THEREOF AND METHODS FOR TREATMENT OF GENETIC DISEASES CAUSED BY INTRONIC SPLICE-ACCEPTOR SITE MUTATIONS” (priority 2021, dated 2022)

Experiments:
[1] = test system: AGA minigene construct without luciferase (c.128-2A>G); test: cells; type: cell-based, human; conditions: 24 h; for fold induction at 7500 µM: Homo sapiens, HEK-293T, read-out: increase in the correctly spliced product (exons 2 and 3); for changes in the splicing (correctly spliced product): 7.5 mM, qRT-PCR
Protocol: (§1) For qPCRs, total RNA was isolated with peqGOLD TriFast™ (VWR, Darmstadt, Germany) and included a DNAse step. Total RNA (1-3 µg) were reverse transcribed with 150 fmol oligo(dT) primers and M-MuLV reverse transcriptase (NEB, Frankfurt, Germany) in a total volume of 45 µL. Real-time quantitative PCRs were performed using the CFX Connect Real-Time PCR Detection System (Bio-Rad, Munich, Germany). Annealing temperature was 60°C for all primers. The reactions were done as duplicates with 0.8 µL cDNA in a total volume of 10 µL using iTaq-TMUniversal SYBR Green Supermix (Bio-Rad). PCR products were quantified with the ACt-method. For normalization, the mean of the reference genes B2M, Rpl13a, Ywhaz and TBP was used. Table 2. Sequences of primers used for the quantitative real-time PCR.
RNA was isolated from the cells, reverse transcribed to cDNA, and a qRT-PCR with a fwd primer residing in exon 2 and a reverse primer in the plasmid vector (3'-untranslated region of the resulting RNA) was performed. Thus, amplification of a PCR product of 271 bp is only observed when both exons 2 and 3 are present in the mRNA.

[2] = test system: AGA minigene containing the splice variant (c.128-2A>G); test: AGA minigene luciferase splicing assay in AGA knockout HEK293T cells; conditions: for splicing of the AGA minigene / variant (summary statement): overall statement in the description, across the AGA assays
Protocol: HEK293T (human embryonic kidney cells) cells were cultured in Dulbecco's modified Eagle's medium (DMEM) with high glucose, 10% fetal calf serum (FCS), 1 % penicillin/streptomycin (all from Gibco, Thermo Fisher Scientific, Germany). […] Immortalized, hTERT-transformed normal human skin fibroblasts were used as control [(Banning, A.; et al. Identification of Small Molecule Compounds for Pharmacological Chaperone Therapy of Aspartylglucosaminuria. Sci Rep 2016, 6, 37583]. All fibroblasts were cultured in DMEM (high glucose), 10% FCS, 1 % penicillin/streptomycin, 1 % non-essential amino acids and 1 % sodium pyruvate. All cells were grown at 8% CO2 and 37°C.
For transient transfection, cells were seeded onto 12-well plates on the day before transfection. For transfections, 400 ng of expression plasmid DNA and 50 ng of pRL-TK Renilla luciferase control reporter vector (Promega) were transfected using MACSfectin™ (Miltenyi Biotec, Bergisch Gladbach, Germany) according to the manufacturer's protocol. Fibroblasts were transfected with Neon Transfection System (Invitrogen). The following day, the cells were transferred onto 24-well plates, treated with specific substances and harvested after 24 h of treatment in lysis juice for firefly and renilla luciferase assay (PJK GmbH, Kleinblittersdorf, Germany). Determination of firefly and renilla luciferase activity was performed with a Tecan infinite M200 plate reader using 20 µl of lysate and 85 µl of beetle or renilla juice (PJK) as reagents. Relative luciferase activity was calculated by dividing the firefly luciferase activity by the renilla luciferase activity.
This construct contains the splice acceptor site mutation -2A>G in intron 1. If exon 2 is spliced out, altered reading frame in exon 3 produces an early STOP codon and prevents the expression of luciferase. However, if all three exons are correctly spliced, the luciferase ORF is translated in-frame as a fusion protein with the AGA protein sequence coded by exons 1-3.

AGA mRNA = test: qRT-PCR of AGA mRNA in control fibroblasts; type: cell-based, human; conditions: 7.5 mM caffeine, 24 h
Protocol: (§2) Fibroblasts were seeded into 6-well plates and treated with the following compounds: caffeine, theophylline, theobromine, pentoxifylline, doxofylline(1-7.5 mM, solvent H2O; TCI, Eschborn, Germany), luteolin (10-50 µM, solvent DMSO; Biozol, Eching, Germany) or kinetin (10-100 µM, solvent DMSO; TCI, Eschborn,Germany) for 24 h (RNA) or 48 h (protein lysate). Cells were harvested in lysis buffer (50 mM Tris pH 7.4, 150 mM NaCl, 2 mM EDTA, 1% NP-40), supplemented with protease inhibitor cocktail (Sigma-Aldrich). Protein concentrations in the lysates were determined according to the Bradford method.
as §1

[3] = test system: AGA-luciferase minigene constructs (c.128-2A>G); test: AGA luciferase minigene splicing assay in AGU patient fibroblasts; type: cell-based, human; conditions: 24 h; for luciferase readout: increasing amounts; for luciferase activity: 7.5 mM
[4] = test system: endogenous AGA mRNA with exon 2; type: cell-based, human; conditions: 24 h, patient fibroblasts
Protocol: as §2, §1

AGA activity = AGA activity in patient fibroblasts, colorimetric Morgan-Elson assay with AADG as substrate; type: cell-based, human; conditions: 25 µM luteolin, 48 h
Protocol: as §2
In most experiments, AGA activity was measured fluorimetrically as described in Banning, A.; et al. Sci Rep 2016, 6, 37583. […] In short, 12.5 µl of cell lysate were mixed with 100 nmol AADG, 3.35 µl 0,5 M KH2PO4, pH8, and 0.9% NaCl to reach a total volume of 25 µl. […] The liberated N-acetylglucosamine was measured at 585 nm. […]
Due to these encouraging data, the AGA activity was measured in patient fibroblasts treated with 25 µM luteolin (Figure 10b). Since luteolin acts as a quencher in our standard fluorescence-based AGA activity measurement [Schoefer, L.; Braune, A., FEMS Microbiol Lett 2001, 204, 277-280, and our own observations], we used a colorimetric activity assay [Tikkanen, R.; et al., DNA Cell Biol 1995, 14, 305-312] that is less sensitive but not subject to quenching by luteolin.

[5] = 7.5 mM, 24 h, compared to untreated cells

## Cn1c(=O)c2c(ncn2C)n(C)c1=O [caffeine, 1,3,7-trimethylxanthine]
[1]
  fold induction at 7500 µM: ~20
[2]; [5]
  luciferase activity: highest increase
AGA mRNA
  AGA mRNA: increase in the AGA mRNA in control fibroblasts
[3]
  luciferase readout: significant, dose dependent increase in the luciferase readout
[4]; 7.5 mM caffeine
  endogenous AGA mRNA splicing products that contain exons 2 and 3: significantly increased to a level that corresponds to the untreated control fibroblasts

## Cn1c(=O)c2c(ncn2CC2OCCO2)n(C)c1=O [doxofylline, 7-(1,3-dioxolan-2-ylmethyl)-1,3-dimethylpurine-2,6-dione]
[1]
  changes in the splicing (correctly spliced product): did not produce significant changes in the splicing
[2]; [5]
  luciferase activity: significantly increased luciferase activity
[2]
  splicing of the AGA minigene / variant (summary statement): consistently failed to exert any significant effects
[3]
  luciferase activity: failed to do so

## c1coc(CNc2ncnc3[nH]cnc23)c1 [kinetin]
[2]; kinetin, lower concentrations (from 10 µM, below 100 µM), 24 h
  luciferase activity: only minor effects
[2]
  splicing of the AGA minigene / variant (summary statement): no systematic positive effect
[4]; kinetin 50 µM
  endogenous AGA mRNA with exon 2: no significant increase

## O=c1cc(-c2ccc(O)c(O)c2)oc2cc(O)cc(O)c12 [luteolin, 3',4',5,7-tetrahydroxyflavone]
[2]; 25 µM luteolin, 24 h, most efficient concentration
  increase in luciferase activity: 5-6 fold
[2]; all luteolin concentrations, 10 µM - 50 µM, 24 h
  luciferase activity: significant increase in luciferase activity
[2]; lysates of the luteolin/kinetin luciferase assay
  luciferase expression in Western blot: strong luciferase expression
AGA activity
  AGA activity: significant increase in the AGA activity
[4]; Homo sapiens, Fibroblast, luteolin 25 µM, read-out: increase of endogenous AGA mRNA with exon 2
  fold induction at 25 µM: ~2.5

## CC(=O)CCCCn1c(=O)c2c(ncn2C)n(C)c1=O [pentoxifylline, 3,7-dimethyl-1-(5-oxohexyl) xanthine]
[1]
  fold induction at 7500 µM: 5 to 10
[2]; [5]
  luciferase activity: significantly increased luciferase activity
[3]
  luciferase activity: significantly increased the luciferase activity

## Cn1cnc2c1c(=O)[nH]c(=O)n2C [theobromine, 3,7-dimethylxanthine]
[1]
  changes in the splicing (correctly spliced product): did not produce significant changes in the splicing
[2]; four concentrations 1 mM - 7.5 mM, 24 h, compared to untreated cells
  luciferase activity: non-significant changes
[3]
  luciferase activity: failed to do so

## Cn1c(=O)c2[nH]cnc2n(C)c1=O [theophylline, 1,3-dimethylxanthine]
[1]
  fold induction at 7500 µM: 5 to 10
[2]; [5]
  luciferase activity: significantly increased luciferase activity
[3]
  luciferase readout: significant, dose dependent increase in the luciferase readout
